Measurements reported in patent publication US20200281923A1, “USE OF PARP INHIBITOR IN TREATING CHEMOTHERAPY-RESISTANT OVARIAN CANCER OR BREAST CANCER” (JIANGSU HENGRUI MEDICINE CO., LTD., priority 2017, published 2020).

What was measured:
recurrent ovarian cancer = experiment: Phase I clinical trial of compound A alone in recurrent chemotherapy-resistant ovarian cancer; assay type: in vivo, human; details: daily dose of 120 mg
Description: Objective response rate (ORR) refers to the proportion of patients whose tumor shrinks to a certain extent and remains for a certain period of time, including cases of CR and PR. The response evaluation criteria in solid tumors (RECIST 1.1 criteria) are employed to assess tumor objective response. The subject must have measurable tumor lesions at baseline. The efficacy assessment criteria are classified into complete response (CR), partial response (PR), stable disease (SD), and progressive disease (PD) according to the RECIST 1.1 criteria.
Disease control rate (DCR) refers to the percentage of confirmed cases of complete response, partial response and stable disease (≥eight weeks) in patients with evaluable efficacy.
In the phase I clinical trial, the dose of compound A was 120 mg/d and above. 23 patients with recurrent ovarian cancer diagnosed by histology or cytology, who had received standard treatment failure, were enrolled. These patients had been subjected to at least second-line systemic chemotherapy during the recurrence and metastasis stage of ovarian cancer. The chemotherapy regimen was a platinum-based chemotherapy regimen. These patients were platinum-based treatment-resistant, or were intolerant to the chemotherapy toxicity during the treatment.
Compound A: the initial dose was 10 mg, 20 mg, 40 mg, 60 mg, 80 mg, 100 mg or 150 mg, administrated orally twice a day; or 120 mg or 160 mg, administrated orally once a day.

advanced prostate cancer = advanced prostate cancer patients with DNA repair gene mutations; phase II clinical trial; cited from earlier work
[1] = platinum-resistant ovarian cancer without BRCA mutations, 13 cases
[2] = recurrent platinum-resistant ovarian cancer, 22 evaluable cases out of 23

Structure (SMILES)	disease control rate (DCR) (recurrent ovarian cancer; [1]) [%]	objective response rate (ORR) (recurrent ovarian cancer; [1]) [%]	disease control rate (DCR) (recurrent ovarian cancer; [2]) [%]	objective response rate (ORR) (recurrent ovarian cancer; [2]) [%]	response (advanced prostate cancer) [%]
O=C(c1cc(Cc2n[nH]c(=O)c3ccccc23)ccc1F)N1CCn2nc(C(F)(F)F)nc2C1 [compound A]	84.6	15.4	81.8	18.2	
O=C(c1cc(Cc2n[nH]c(=O)c3ccccc23)ccc1F)N1CCN(C(=O)C2CC2)CC1 [Olaparib]					88
